Assay results as given in patent EP0107890B1, “Mammalian PGRF” (THE SALK INSTITUTE FOR BIOLOGICAL STUDIES, priority 1982, dated 1986).
Where no end group is shown, it is not given here.

Columns and labels:
[1] = test system: pituitary cells; assay: in vitro growth hormone release assay in rat pituitary cell cultures (immunoreactive GH by radioimmunoassay); format: cell-based
Method: To determine the effectiveness of the peptides to promote the release of growth hormone, in vitro assays are carried out using synthetic PGRF(1-40) of Example II in side-by-side comparison with equimolar concentrations of the extracted and purified native PGRF (1-40) and of a GRF Reference Standard having a known effectiveness to promote the release of growth hormone from pituitary cells. The GRF Reference standard is described and defined in Brazeau, et al., Endocrinology, Vol. 110, A538(1982) and is an amount of a preparation of rat hypothalamic origin that produces a half-maximal response in terms of GH release in a pituitary cell monolayer bioassay. Cultures are used which include cells of rat pituitary glands removed some four to five days previously. Both cultures of a defined standard medium and cultures which are considered optimal for the secretion of growth hormone are used for the comparative testing, in the general manner described in Brazeau, et al. Regulatory Peptides, 1, 255, 1981. Incubation with the substance to be tested is carried out for 3 to 4 hours, and aliquots of the culture medium are removed and processed to measure their contents in immunoreactive GH(ir GH) by a well-characterized radioimmunoassay.

[2] = test system: normal male rats; assay: in vivo secretion of pituitary growth hormone after injection into anesthetized rats; conditions: injected into rats
Source text: In addition to the in vitro tests for secretion of growth hormone, in vivo experiments were also run by injecting the synthetic peptide into normal male rats about 200 g. body weight, anesthetized with pentobarbital.

Substance: PGRF(1-40) (YADAIFTNSYRKVLGQLSARKLLQDIMSRQQGESNQERGA-OH; UniProt P01286 32-71, looked up, fragment) [Example II]
- ED50 ([1]; GH release from rat pituitary cell cultures, incubation 3 to 4 hours): about 113 picograms
- biological activity compared with the native peptide ([1]; in equimolar ratios, versus extracted and purified native PGRF (1-40)): full biological activity of the native peptide
- GH-releasing activity in vivo [2]: powerful stimulator of the secretion of pituitary growth hormone
